Test results reported in ChEMBL document CHEMBL6078702, “Hypoxia-selective prodrug restrains tumor cells through triggering mitophagy and inducing apoptosis” (Eur J Med Chem, 2025).
The source made the active and inactive calls. No cut-off for these calls is given here.

What was measured:
HeLa [1] = assay: Cytotoxicity against human HeLa cells under hypoxic condition incubated for 48 hrs by MTT assay; format: functional, cell-based
HepG2 [2] = assay: Cytotoxicity against human HepG2 cells under hypoxic condition incubated for 48 hrs by MTT assay; format: functional, cell-based; conditions: HepG2, 48 h
HeLa [3] = assay: Cytotoxicity against human HeLa cells under normoxia condition incubated for 48 hrs by MTT assay; format: functional, cell-based
HepG2 [4] = assay: Cytotoxicity against human HepG2 cells under normoxia condition incubated for 48 hrs by MTT assay; format: functional, cell-based; conditions: HepG2, 48 h
[5] = Acute toxicity in BALB/c nude mouse xenografted with human HeLa cells assessed as damage in liver at 1000 mg/kg, ip by H and E staining based analysis; format: organism-based; conditions: in vivo
[6] = Acute toxicity in BALB/c nude mouse xenografted with human HeLa cells assessed as damage in lung at 1000 mg/kg, ip by H and E staining based analysis; format: organism-based; conditions: in vivo
[7] = Toxicity in BALB/c nude mouse xenografted with human HeLa cells assessed as animal mortality at 25 to 50 mg/kg, ip qd for 14 days; format: organism-based; conditions: in vivo, dose 25-50 mg/kg, time 14 day
HeLa [8] = assay: Induction of apoptosis in human HeLa cells under hypoxic condition assessed as early apoptotic cells at 5 uM incubated for 48 hrs by Annexin V-FITC/PI staining based flow cytometry (reference value: 0.60 %); format: functional
HeLa [9] = assay: Induction of mitophagy in human HeLa cells under hypoxic condition assessed as decrease in p62 level incubated for 24 hrs by Western blot analysis; format: functional, cell-based; conditions: dose 1-10 µM
HeLa [10] = assay: Induction of morphological change in mitochondria in human HeLa cells under hypoxic condition assessed as increase in IMMT level at 5 uM incubated for 48 hrs by immunofluorescence based analysis; format: functional, cell-based
HeLa [11] = assay: Induction of mitochondrial membrane potential dissipation in human HeLa cells under hypoxic condition assessed as accumulation of green fluorescence at 5 uM incubated for 24 hrs by JC-1 staining based CLSM analysis; format: functional, cell-based
HeLa [12] = assay: Induction of mitophagy in human HeLa cells under hypoxic condition assessed as increase in ratio of LC3-II to LC3-I levels incubated for 24 hrs by Western blot analysis; format: functional, cell-based; conditions: dose 1-10 µM
HeLa [13] = assay: Induction of morphological change in mitochondria in human HeLa cells under hypoxic condition assessed as disappearance of cristae at 5 to 10 uM incubated for 48 hrs by TEM analysis; format: functional, cell-based; conditions: dose 5-10 µM
HeLa [14] = assay: Induction of apoptosis in human HeLa cells under hypoxic condition assessed as increase in cleaved PARP-1 level at 1 to 10 uM incubated for 48 hrs by Western blot analysis; format: functional, cell-based; conditions: dose 1-10 µM
HeLa [15] = assay: Induction of apoptosis in human HeLa cells under hypoxic condition assessed as necrotic cells at 5 uM incubated for 48 hrs by Annexin V-FITC/PI staining based flow cytometry (reference value: 1.17 %); format: functional
HeLa [16] = assay: Induction of morphological change in mitochondria in human HeLa cells under hypoxic condition assessed as formation of vacuoles at 5 to 10 uM incubated for 48 hrs by TEM analysis; format: functional, cell-based; conditions: dose 5-10 µM
HeLa [17] = assay: Antitumor activity against human HeLa cells xenografted in BALB/c nude mouse assessed as tumor growth suppression at 25 to 50 mg/kg, ip qd for 14 days; format: functional, organism-based; conditions: dose 25-50 mg/kg, time 14.0 day
HeLa [18] = assay: Induction of mitophagy in human HeLa cells under hypoxic condition assessed as encapsulation of mitochondria in vacuoles at 10 uM incubated for 48 hrs by TEM analysis; format: functional, cell-based
[19] = Acute toxicity in BALB/c nude mouse xenografted with human HeLa cells assessed as damage in kidney at 1000 mg/kg, ip by H and E staining based analysis; format: organism-based; conditions: in vivo
[20] = Acute toxicity in BALB/c nude mouse xenografted with human HeLa cells assessed as damage in heart at 1000 mg/kg, ip by H and E staining based analysis; format: organism-based; conditions: in vivo
HeLa [21] = assay: Induction of morphological change in mitochondria in human HeLa cells under hypoxic condition assessed as onion-like circle formation of cristae folds in inner membrane at 5 uM incubated for 48 hrs by TEM analysis; format: functional, cell-based
HeLa [22] = assay: Induction of apoptosis in human HeLa cells under hypoxic condition assessed as viable cells at 5 uM incubated for 48 hrs by Annexin V-FITC/PI staining based flow cytometry (reference value: 98.13 %); format: functional; conditions: read-out: Activity
HeLa [23] = assay: Antitumor activity against human HeLa cells xenografted in BALB/c nude mouse at 50 mg/kg, ip qd for 14 days relative to control; format: functional; conditions: 336 h, time 14 day, read-out: TGI
HeLa [24] = assay: Antitumor activity against human HeLa cells xenografted in BALB/c nude mouse at 25 mg/kg, ip qd for 14 days relative to control; format: functional; conditions: 336 h, time 14 day, read-out: TGI
[25] = Toxicity in BALB/c nude mouse xenografted with human HeLa cells assessed as body weight change at 25 to 50 mg/kg, ip qd for 14 days; format: organism-based; conditions: in vivo, 336 h, dose 25-50 mg/kg, time 14 day
[26] = Acute toxicity in BALB/c nude mouse xenografted with human HeLa cells assessed as damage in spleen at 1000 mg/kg, ip by H and E staining based analysis; format: organism-based; conditions: in vivo
HeLa [27] = assay: Induction of apoptosis in human HeLa cells under hypoxic condition assessed as increase in cleaved caspase-3 level at 1 to 10 uM incubated for 48 hrs by Western blot analysis; format: functional, cell-based; conditions: dose 1-10 µM
HeLa [28] = assay: Induction of morphological change in mitochondria in human HeLa cells under hypoxic condition assessed as formation of multi-lamellar globules at 5 uM incubated for 48 hrs by TEM analysis; format: functional, cell-based
HeLa [29] = assay: Induction of mitophagy in human HeLa cells under hypoxic condition assessed as co-localization of mitochondria and lysosomes at 5 uM incubated for 24 hrs by CLSM analysis; format: functional, cell-based
HeLa [30] = assay: Induction of mitochondrial membrane potential dissipation in human HeLa cells under hypoxic condition at 5 uM incubated for 24 hrs by flow cytometry; format: functional, cell-based
HeLa [31] = assay: Induction of morphological damage in human HeLa cells under normoxia condition by Hoechst 33342 staining based analysis; format: functional, cell-based
HeLa [32] = assay: Induction of apoptosis in human HeLa cells under hypoxic condition assessed as late apoptotic cells at 5 uM incubated for 48 hrs by Annexin V-FITC/PI staining based flow cytometry (reference value: 0.10 %); format: functional
HeLa [33] = assay: Induction of morphological damage in human HeLa cells under hypoxic condition by Hoechst 33342 staining based analysis; format: functional, cell-based

Compound: COc1ccc(/C=C/C(=O)c2ccc(OCc3cn(CCCC[P+](c4ccccc4)(c4ccccc4)c4ccccc4)nn3)c(Br)c2)cc1[N+](=O)[O-]
- IC50 (HeLa [1]): > 50 µM
- IC50 (HepG2 [2]): 19.3 µM
- IC50 (HeLa [3]): 10.7 µM
- IC50 (HepG2 [4]): 21.6 µM

Compound: COc1ccc(C(=O)/C=C/c2cccc(N)c2)cc1F
- Activity [5]: Non-toxic
- Activity [6]: Non-toxic
- mortality at 336 h [7]: 50%

Compound: O=C(/C=C/c1cccc([N+](=O)[O-])c1)c1ccc(OCc2cn(CCCC[P+](c3ccccc3)(c3ccccc3)c3ccccc3)nn2)c(Br)c1
- IC50 (HeLa [1]): > 50 µM
- IC50 (HepG2 [2]): 26.5 µM
- IC50 (HeLa [3]): > 50 µM
- IC50 (HepG2 [4]): 12.8 µM

Compound: COc1ccc(C(=O)/C=C/c2ccc(OC)c([N+](=O)[O-])c2)cc1F
- IC50 (HeLa [1]): > 50 µM
- IC50 (HepG2 [2]): 23.1 µM
- IC50 (HeLa [3]): > 100 µM
- IC50 (HepG2 [4]): > 50 µM

Compound: COc1ccc(C(=O)/C=C/c2ccc(OC)c([N+](=O)[O-])c2)cc1Br
- IC50 (HeLa [1]): 15.1 µM
- IC50 (HepG2 [2]): 15.4 µM
- IC50 (HeLa [3]): > 100 µM
- IC50 (HepG2 [4]): > 50 µM

Compound: COc1ccc(C(=O)/C=C/c2cccc([N+](=O)[O-])c2)cc1F
- Activity (HeLa [8]): 10.21%
- Activity (HeLa [9]): Active
- IC50 (HeLa [1]): 3.3 µM
- Activity (HeLa [10]): Active
- Activity (HeLa [11]): Active
- Activity (HeLa [12]): Active
- Activity (HeLa [13]): Active
- Activity (HeLa [14]): Active
- Activity (HeLa [15]): 7.74%
- IC50 (HepG2 [2]): 5 µM
- Activity (HeLa [16]): Active
- Activity (HeLa [17]): Active
- Activity (HeLa [18]): Active; Result Indicates That Mitochondria Were Removed From Cells Through Autophagosomes
- Activity [19]: Non-toxic
- Activity [20]: Non-toxic
- Activity (HeLa [21]): Active
- viability at 5 µM (HeLa [22]): 18.8%
- inhibition in vivo at 50 mg/kg (HeLa [23]): 57.4%
- inhibition in vivo at 25 mg/kg (HeLa [24]): 30.3%
- Activity [5]: Non-toxic
- Activity [25]: Non-toxic
- Activity [26]: Non-toxic
- Activity (HeLa [27]): Active
- IC50 (HeLa [3]): > 50 µM
- Activity (HeLa [28]): Active
- Activity (HeLa [29]): Active
- Activity (HeLa [30]): Active
- Activity (HeLa [31]): inactive
- IC50 (HepG2 [4]): > 50 µM
- Activity (HeLa [32]): 63.25%
- Activity (HeLa [33]): Active
- Activity [6]: Non-toxic
